The numbers were not newly measured in publication PMC4402028 (Journal of Clinical Pharmacology, 2015), which cites them from elsewhere.

In general, Ki refers to the dissociation constant of the complex between target and ligand, obtained from inhibition or displacement.

The data set relates to MRP2. The conditions noted are these: read-out: Ki for MRP2; cited from earlier work.

As for `CCCN(CCC)S(=O)(=O)c1ccc(C(=O)O)cc1` [probenecid], the Ki was 44.6 µM.
